Experimental data as given in ChEMBL document CHEMBL2057163, “Pyridofuran substituted pyrimidine derivatives as HCV replication (replicase) inhibitors” (Bioorg Med Chem Lett, 2012).

Assays:
Hepatitis C virus = assay: Antiviral activity against Hepatitis C virus 1b con1 infected in human hepatoma cells assessed as decrease in replicon RNA level after 3 days by RT-PCR analysis; type: functional, organism-based, Hepacivirus hominis; details: Con1, 72 h
[1] = Cytotoxicity against human hepatoma cells after 3 days by MTS assay; type: cell-based
[2] = Cytotoxicity against human hepatoma cells assessed as decrease in GAPDH RNA level after 3 days by RT-PCR analysis; type: cell-based
[3] = AUC (0 to 6 hrs) in rat at 10 mg/kg, po; type: ADME, organism-based; set-up: time < 6 hr, dose 10 mg/kg, route oral; details: plasma
Liver = assay: Drug uptake in rat liver assessed per gram of tissue at 10 mg/kg, po measured at 6 hrs; type: ADME, organism-based; set-up: dose 10 mg/kg, route oral; details: in vivo

Row | SMILES | EC50 (Hepatitis C virus) [µM] | AUC(0-t) at 6 h [3] [µM·h] | liver concentration (Liver) [ng/g] | CC50 at 72 h [1] [µM] | CC50 at 72 h [2] [µM]
1 | Nc1nc(Cl)c(-c2cc3ncccc3o2)c(N[C@@H]2C[C@H](CO)[C@@H](O)[C@H]2O)n1 | > 25 | – | – | 21 | –
2 | Nc1nc(Cl)c(-c2cc3cnccc3o2)c(N[C@@H]2C[C@H](CO)[C@@H](O)[C@H]2O)n1 | 1.7 | – | – | 25 | –
3 | Nc1nc(Cl)c(-c2cc3cccnc3o2)c(N[C@@H]2C[C@H](CO)[C@@H](O)[C@H]2O)n1 | 0.4 | – | – | 19 | –
4 | Cc1cncc2oc(-c3c(Cl)nc(N)nc3N[C@@H]3C[C@H](CO)[C@@H](O)[C@H]3O)cc12 | 1.4 | – | – | > 25 | 25
5 | Cc1cc2cc(-c3c(Cl)nc(N)nc3N[C@@H]3C[C@H](CO)[C@@H](O)[C@H]3O)oc2cn1 | 0.03 | – | – | 25 | 9
6 | CCc1cc2cc(-c3c(Cl)nc(N)nc3N[C@@H]3C[C@H](CO)[C@@H](O)[C@H]3O)oc2cn1 | 0.01 | – | – | 22 | 12
7 | CCc1nccc2cc(-c3c(Cl)nc(N)nc3N[C@@H]3C[C@H](CO)[C@@H](O)[C@H]3O)oc12 | 0.02 | – | – | 24 | 19
8 | Cc1cc2cc(-c3c(Cl)nc(N)nc3N[C@@H]3C[C@H](CO)[C@@H](O)[C@H]3O)oc2c(C)n1.Cl | 0.01 | 0.01 | – | 22 | 15
9 | CCc1cc2cc(-c3c(Cl)nc(N)nc3N[C@@H]3C[C@H](CO)[C@@H](O)[C@H]3O)oc2c(CC)n1 | 0.02 | – | – | 16 | 25
10 | COc1cc2cc(-c3c(Cl)nc(N)nc3N[C@@H]3C[C@H](CO)[C@@H](O)[C@H]3O)oc2c(C)n1 | 0.01 | – | – | 25 | –
11 | CCc1cc2cc(-c3c(C)nc(NCC(C)C)nc3N[C@@H]3C[C@H](CO)[C@@H](O)[C@H]3O)oc2cn1 | 0.08 | – | – | 12 | 7
12 | CCOCCNc1nc(C)c(-c2cc3cc(CC)ncc3o2)c(N[C@@H]2C[C@H](CO)[C@@H](O)[C@H]2O)n1 | 0.004 | – | – | 16 | 4
13 | CCc1cc2cc(-c3c(C)nc(NCC(F)(F)F)nc3N[C@@H]3C[C@H](CO)[C@@H](O)[C@H]3O)oc2cn1 | 0.02 | – | – | 15 | 13
14 | CCc1cc2cc(-c3c(C)nc(NCc4cc(OC)cc(OC)c4)nc3N[C@@H]3C[C@H](CO)[C@@H](O)[C@H]3O)oc2cn1 | 0.003 | – | – | 20 | > 25
15 | CCOc1cc2cc(-c3c(C)nc(NC)nc3N[C@@H]3C[C@H](CO)[C@@H](O)[C@H]3O)oc2c(C)n1 | 0.05 | – | – | – | > 25
16 | CCOc1cc2cc(-c3c(C)nc(NCC(C)(C)C)nc3N[C@@H]3C[C@H](CO)[C@@H](O)[C@H]3O)oc2c(C)n1 | 0.05 | – | – | 23 | 12
17 | CCOc1cc2cc(-c3c(C)nc(NCC4CC4)nc3N[C@@H]3C[C@H](CO)[C@@H](O)[C@H]3O)oc2c(C)n1 | 0.02 | – | – | 25 | 25
18 | CCOc1cc2cc(-c3c(C)nc(NCc4cc(OC)cc(OC)c4)nc3N[C@@H]3C[C@H](CO)[C@@H](O)[C@H]3O)oc2c(C)n1 | 0.002 | – | – | > 25 | > 25
19 | COc1cc2cc(-c3c(C)nc(NCC(C)(C)C)nc3N[C@@H]3C[C@H](CO)[C@@H](O)[C@H]3O)oc2c(C)n1.Cl | – | 4.4 | 1180 | – | –

Row | SMILES | EC50 (Hepatitis C virus) [µM] | AUC(0-t) at 6 h [3] [µM·h] | liver concentration (Liver) [ng/g] | CC50 at 72 h [1] [µM] | CC50 at 72 h [2] [µM]
20 | COc1cc(CNc2nc(C)c(-c3cc4cc(OC)nc(C)c4o3)c(N[C@@H]3C[C@H](CO)[C@@H](O)[C@H]3O)n2)cc(OC)c1.Cl | – | 0.5 | 178 | – | –
21 | CCOc1cc2cc(-c3c(C)nc(NC)nc3N[C@@H]3C[C@H](CO)[C@@H](O)[C@H]3O)oc2c(C)n1.Cl | – | 1.4 | 238 | – | –
22 | CCOc1cc2cc(-c3c(C)nc(NCC(C)(C)C)nc3N[C@@H]3C[C@H](CO)[C@@H](O)[C@H]3O)oc2c(C)n1.Cl | – | 6.8 | 2330 | – | –
23 | CCOc1cc2cc(-c3c(C)nc(Nc4ccccc4)nc3N[C@@H]3C[C@H](CO)[C@@H](O)[C@H]3O)oc2c(C)n1.Cl | – | 18.5 | 8980 | – | –
24 | CCOc1cc2cc(-c3c(C)nc(NCCOC)nc3N[C@@H]3C[C@H](CO)[C@@H](O)[C@H]3O)oc2c(C)n1.Cl | – | 1.1 | 285 | – | –
25 | CCOc1cc2cc(-c3c(C)nc(NCC(F)(F)F)nc3N[C@@H]3C[C@H](CO)[C@@H](O)[C@H]3O)oc2c(C)n1.Cl | – | 8.9 | 3020 | – | –
26 | CCOc1cc2cc(-c3c(C)nc(NCc4cc(OC)cc(OC)c4)nc3N[C@@H]3C[C@H](CO)[C@@H](O)[C@H]3O)oc2c(C)n1.Cl | – | 0.35 | 238 | – | –
27 | CCc1cc2cc(-c3c(Cl)nc(N)nc3N[C@@H]3C[C@H](CO)[C@@H](O)[C@H]3O)oc2cn1.Cl | – | 0.07 | – | – | –
28 | CCc1nccc2cc(-c3c(Cl)nc(N)nc3N[C@@H]3C[C@H](CO)[C@@H](O)[C@H]3O)oc12.Cl | – | 0.05 | – | – | –
29 | CCc1cc2cc(-c3c(Cl)nc(N)nc3N[C@@H]3C[C@H](CO)[C@@H](O)[C@H]3O)oc2c(C)n1.Cl | – | 0.01 | – | – | –
30 | CCc1cc2cc(-c3c(Cl)nc(N)nc3N[C@@H]3C[C@H](CO)[C@@H](O)[C@H]3O)oc2c(CC)n1.Cl | – | 0.17 | – | – | –
31 | COc1cc2cc(-c3c(Cl)nc(N)nc3N[C@@H]3C[C@H](CO)[C@@H](O)[C@H]3O)oc2c(C)n1.Cl | – | 0.1 | – | – | –
32 | CNc1nc(Cl)c(-c2cc3cc(OC)nc(C)c3o2)c(N[C@@H]2C[C@H](CO)[C@@H](O)[C@H]2O)n1.Cl | – | 6.5 | 274 | – | –
33 | CCc1cc2cc(-c3c(C)nc(NC)nc3N[C@@H]3C[C@H](CO)[C@@H](O)[C@H]3O)oc2cn1.Cl | – | 0.9 | 936 | – | –
34 | CCCCCNc1nc(C)c(-c2cc3cc(CC)ncc3o2)c(N[C@@H]2C[C@H](CO)[C@@H](O)[C@H]2O)n1.Cl | – | 0.48 | 31 | – | –
35 | CCc1cc2cc(-c3c(C)nc(NCC(C)(C)C)nc3N[C@@H]3C[C@H](CO)[C@@H](O)[C@H]3O)oc2cn1.Cl | – | 4 | 315 | – | –
36 | CCOCCNc1nc(C)c(-c2cc3cc(CC)ncc3o2)c(N[C@@H]2C[C@H](CO)[C@@H](O)[C@H]2O)n1.Cl | – | 1.2 | 492 | – | –
37 | CCc1cc2cc(-c3c(C)nc(NCCCC(F)(F)F)nc3N[C@@H]3C[C@H](CO)[C@@H](O)[C@H]3O)oc2cn1.Cl | – | 0.9 | 1000 | – | –

More lines, main results first:

Row | EC50 (Hepatitis C virus) [µM] | AUC(0-t) at 6 h [3] [µM·h] | liver concentration (Liver) [ng/g] | SMILES | CC50 at 72 h [1] [µM] | CC50 at 72 h [2] [µM]
38 | 0.07 | – | – | Nc1nc(Cl)c(-c2cc3ccncc3o2)c(N[C@@H]2C[C@H](CO)[C@@H](O)[C@H]2O)n1 | 25 | 25
39 | 0.12 | – | – | Cc1nccc2cc(-c3c(Cl)nc(N)nc3N[C@@H]3C[C@H](CO)[C@@H](O)[C@H]3O)oc12 | > 25 | > 25
40 | 0.01 | – | – | CCc1cc2cc(-c3c(Cl)nc(N)nc3N[C@@H]3C[C@H](CO)[C@@H](O)[C@H]3O)oc2c(C)n1 | 16 | 13
41 | 0.03 | – | – | CCc1nc(C)cc2cc(-c3c(Cl)nc(N)nc3N[C@@H]3C[C@H](CO)[C@@H](O)[C@H]3O)oc12 | 20 | 9
42 | 0.03 | – | – | CCc1cc2cc(-c3c(C)nc(NC)nc3N[C@@H]3C[C@H](CO)[C@@H](O)[C@H]3O)oc2cn1 | > 25 | > 25
43 | 0.03 | – | – | CCCCCNc1nc(C)c(-c2cc3cc(CC)ncc3o2)c(N[C@@H]2C[C@H](CO)[C@@H](O)[C@H]2O)n1 | 3 | 3
44 | 0.03 | – | – | CCc1cc2cc(-c3c(C)nc(NCC(C)(C)C)nc3N[C@@H]3C[C@H](CO)[C@@H](O)[C@H]3O)oc2cn1 | 11 | 10
45 | 0.02 | – | – | CCc1cc2cc(-c3c(C)nc(NCCCC(F)(F)F)nc3N[C@@H]3C[C@H](CO)[C@@H](O)[C@H]3O)oc2cn1 | > 25 | 17
46 | 0.06 | – | – | CNc1nc(C)c(-c2cc3cc(OC)nc(C)c3o2)c(N[C@@H]2C[C@H](CO)[C@@H](O)[C@H]2O)n1 | 25 | > 25
47 | 0.04 | – | – | COc1cc2cc(-c3c(C)nc(NCC(C)(C)C)nc3N[C@@H]3C[C@H](CO)[C@@H](O)[C@H]3O)oc2c(C)n1 | 21 | 17
48 | 0.01 | – | – | COc1cc(CNc2nc(C)c(-c3cc4cc(OC)nc(C)c4o3)c(N[C@@H]3C[C@H](CO)[C@@H](O)[C@H]3O)n2)cc(OC)c1 | 25 | > 25
49 | 0.15 | – | – | CCOc1cc2cc(-c3c(C)nc(Nc4ccccc4)nc3N[C@@H]3C[C@H](CO)[C@@H](O)[C@H]3O)oc2c(C)n1 | 18 | 24
50 | 0.009 | – | – | CCOc1cc2cc(-c3c(C)nc(NCCOC)nc3N[C@@H]3C[C@H](CO)[C@@H](O)[C@H]3O)oc2c(C)n1 | > 25 | > 25
51 | 0.02 | – | – | CCOc1cc2cc(-c3c(C)nc(NCC(F)(F)F)nc3N[C@@H]3C[C@H](CO)[C@@H](O)[C@H]3O)oc2c(C)n1 | > 25 | > 25
52 | – | 4.5 | 251 | CCc1cc2cc(-c3c(C)nc(NCC(C)C)nc3N[C@@H]3C[C@H](CO)[C@@H](O)[C@H]3O)oc2cn1.Cl | – | –
53 | – | 0.1 | 20 | CCc1cc2cc(-c3c(C)nc(NCc4cc(OC)cc(OC)c4)nc3N[C@@H]3C[C@H](CO)[C@@H](O)[C@H]3O)oc2cn1.Cl | – | –
54 | – | 2.7 | 310 | CNc1nc(C)c(-c2cc3cc(OC)nc(C)c3o2)c(N[C@@H]2C[C@H](CO)[C@@H](O)[C@H]2O)n1.Cl | – | –
